Here are results for five molecules from ChEMBL document CHEMBL4699417, “Leishmania infantum isolates exhibit high infectivity and reduced susceptibility to amphotericin B” (RSC Med Chem, 2020).

Assay [1] deals with Leishmania infantum. In words: Antileishmanial activity against amastigote form of Leishmania infantum MCAN_UY_2015_mCO8 isolate assessed as decrease in parasite viability measured after 72 hrs by resazurin assay. In kind it is functional, organism-based. On the technique in general: Resazurin is reduced to fluorescent resorufin, in cell work by metabolically active cells.
Assay [2] relates to Leishmania infantum. In words: Antileishmanial activity against amastigote form of Leishmania infantum MHOM/BR/2002/LPC-RPV assessed as decrease in parasite viability measured after 72 hrs by resazurin assay. Format: functional, organism-based.
Assay [3] has as its system Leishmania infantum. In words: Antileishmanial activity against amastigote form of Leishmania infantum MCAN_UY_2015_gCH2 isolate assessed as decrease in parasite viability measured after 72 hrs by resazurin assay. In kind it is functional, organism-based.
Assay [4] has as its system Leishmania infantum. In words: Antileishmanial activity against amastigote form of Leishmania infantum MCAN_UY_2015_bCH11 isolate assessed as decrease in parasite viability measured after 72 hrs by resazurin assay. Format: functional, organism-based.
The subject of assay [5] is Leishmania infantum. In words: Antileishmanial activity against amastigote form of Leishmania infantum MCAN_UY_2015_bPL7 isolate assessed as decrease in parasite viability measured after 72 hrs by resazurin assay. In kind it is functional, organism-based.
For assay [6], the system named is Leishmania infantum. In words: Antileishmanial activity against amastigote form of Leishmania infantum MCAN_UY_2015_gPL8 isolate assessed as decrease in parasite viability measured after 72 hrs by resazurin assay. In kind it is functional, organism-based.
The test system of assay [7] is Leishmania infantum. In words: Antileishmanial activity against promastigote form of Leishmania infantum MCAN_UY_2015_gCH2 isolate assessed as decrease in parasite viability measured after 72 hrs by resazurin assay.
In assay [8] the test system is Leishmania infantum. In words: Antileishmanial activity against promastigote form of Leishmania infantum MCAN_UY_2015_mCO8 isolate assessed as decrease in parasite viability measured after 72 hrs by resazurin assay.
Assay [9] has as its system Leishmania infantum. In words: Antileishmanial activity against promastigote form of Leishmania infantum MCAN_UY_2015_bPL7 isolate assessed as decrease in parasite viability measured after 72 hrs by resazurin assay.
For assay [10], the system named is Leishmania infantum. In words: Antileishmanial activity against promastigote form of Leishmania infantum MCAN_UY_2015_bCH11 isolate assessed as decrease in parasite viability measured after 72 hrs by resazurin assay.
For assay [11], the system named is Leishmania infantum. In words: Antileishmanial activity against promastigote form of Leishmania infantum MHOM/BR/2002/LPC-RPV assessed as decrease in parasite viability measured after 72 hrs by resazurin assay.
Assay [12] relates to Leishmania infantum. In words: Antileishmanial activity against promastigote form of Leishmania infantum MCAN_UY_2015_gPL8 isolate assessed as decrease in parasite viability measured after 72 hrs by resazurin assay.

With MEGLUMINE ANTIMONATE, the IC50 in [1] amounted to 51 µM; in assay [2], 50.1 µM; in [3], 50.4 µM; in [4], 50.5 µM; in assay [5] it was 50.2 µM; in [6], 50.1 µM.
As to `CCCCCCCCCCCCCCCCOP(=O)([O-])OCC[N+](C)(C)C` [MILTEFOSINE], the IC50 in assay [7] was determined as 4.1 µM; in [8], 3.4 µM; in assay [9] it was 3.6 µM; in [10] it was 3.8 µM; in [11], 5.3 µM; in assay [12], 4.1 µM.
As to `C[C@@H]1[C@H](O)[C@@H](C)/C=C/C=C/C=C/C=C/C=C/C=C/C=C/[C@H](O[C@@H]2O[C@H](C)[C@@H](O)[C@H](N)[C@@H]2O)C[C@@H]2O[C@](O)(C[C@@H](O)C[C@@H](O)[C@H](O)CC[C@@H](O)C[C@@H](O)CC(=O)O[C@H]1C)C[C@H](O)[C@H]2C(=O)O` [AMPHOTERICIN B], the IC50 came to 24.8 µM in [7]; 12.7 µM in assay [8]; 24.9 µM in assay [9]; 24.6 µM in assay [10]; 6.5 µM in [11]; 24.4 µM in assay [12].
`CC[C@H](C)C(=O)O[C@H]1C[C@@H](C)C=C2C=C[C@H](C)[C@H](CC[C@@H]3C[C@@H](O)CC(=O)O3)[C@H]21` [LOVASTATIN]: the 50% inhibitory concentration (IC50) in assay [7] is 25.3 µM; in assay [8], 25.4 µM; in assay [9], 25.3 µM; in assay [10], 25.3 µM; in [11], 12.9 µM; in assay [12], 25.4 µM.
In the case of `CC1CS(=O)(=O)CCN1/N=C/c1ccc([N+](=O)[O-])o1` (stereo not given) [NIFURTIMOX], the IC50 is 6.7 µM in assay [7]; 6.7 µM in assay [8]; 6.5 µM in [9]; 6.5 µM in assay [10]; 6.3 µM in [11]; 6 µM in assay [12].

As a reminder, the IC50 is the point on the concentration scale where inhibition reaches its midpoint.
